In patent publication US20260234157A1, “COMPOUND AND METHOD FOR TARGETED DEGRADATION OF ANDROGEN RECEPTOR” (Gan & Lee Pharmaceuticals Co., Ltd., priority 2023, published 2026):
Where a chain is given by its changes, count along the chain named. Like-named read-outs stand apart in the source and are kept apart here.

What was measured:
Type in all cases: cell-based
[1] = target: T1, AR protein (Homo sapiens, UniProt P10275, T878A); assay: Degradation of AR protein in LNCaP cells (Western blot); conditions: for inhibition at 0.01 µM: read-out: Degradation rates of the AR protein in LNCaP cells, 10 nM (%); for inhibition at 0.1 µM: read-out: Degradation rates of the AR protein in LNCaP cells, 100 nM (%)
T1 construct: degradation activity of the compounds disclosed in the present disclosure on AR protein in LNCaP cells; host or cells: LNCaP FGC
T1 sequence (P10275 1-920 T878A): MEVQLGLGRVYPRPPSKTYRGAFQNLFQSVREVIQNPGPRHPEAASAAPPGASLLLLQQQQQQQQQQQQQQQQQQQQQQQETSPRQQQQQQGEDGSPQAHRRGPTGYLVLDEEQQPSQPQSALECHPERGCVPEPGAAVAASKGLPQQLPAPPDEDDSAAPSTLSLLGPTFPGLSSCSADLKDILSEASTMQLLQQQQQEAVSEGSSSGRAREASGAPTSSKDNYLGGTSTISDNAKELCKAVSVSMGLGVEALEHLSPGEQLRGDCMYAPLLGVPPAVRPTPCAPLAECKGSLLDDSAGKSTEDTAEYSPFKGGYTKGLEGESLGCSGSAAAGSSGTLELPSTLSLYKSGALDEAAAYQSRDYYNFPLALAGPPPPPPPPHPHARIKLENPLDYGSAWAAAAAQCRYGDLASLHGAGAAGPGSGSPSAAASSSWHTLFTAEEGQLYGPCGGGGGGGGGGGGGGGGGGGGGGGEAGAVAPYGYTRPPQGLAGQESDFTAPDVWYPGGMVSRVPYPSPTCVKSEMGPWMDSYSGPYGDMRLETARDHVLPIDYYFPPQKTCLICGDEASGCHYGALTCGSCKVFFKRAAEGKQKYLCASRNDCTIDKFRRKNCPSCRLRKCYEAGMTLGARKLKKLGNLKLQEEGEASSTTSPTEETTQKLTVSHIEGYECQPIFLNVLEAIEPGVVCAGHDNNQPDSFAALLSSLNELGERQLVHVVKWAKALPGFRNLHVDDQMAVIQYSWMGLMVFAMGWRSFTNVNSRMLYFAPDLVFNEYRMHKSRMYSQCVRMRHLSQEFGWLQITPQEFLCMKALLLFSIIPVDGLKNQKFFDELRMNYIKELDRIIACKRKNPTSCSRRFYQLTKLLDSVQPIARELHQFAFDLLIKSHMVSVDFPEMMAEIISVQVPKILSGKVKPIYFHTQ
Description: The degradation activity of the compounds disclosed in the present disclosure on AR protein in LNCaP cells (cell source: ATCC)
(§1) Corresponding solvent controls were also set and cultured for 8 hours. After 8 hours of cultivation, the culture medium was removed and the cells were washed with PBS. RIPA lysis buffer containing 1% Protease Inhibitor Cocktail was added, and the total protein extract was obtained by lysis and centrifugation. The protein concentration in the extract was detected by BCA method. Protein electrophoresis was performed using SDS-PAGE, followed by transfer of the protein onto a PVDF (Millipore Sigma catalog No. PSRP010R5) membrane at 100V constant voltage for 60 minutes. The PVDF membrane was then placed in a 1×TBST solution with 5% milk and blocked at room temperature for 1 hour. […] The primary antibody solution was discarded and the PVDF membrane was washed three times with 1×TBST for 5 minutes/time. […] The secondary antibody solution was discarded and the PVDF membrane was washed three times with 1×TBST for 5 minutes/time. Western blot imaging was performed by using a dual color infrared laser imaging system (Licor catalog No. Odyssey CLX). Bands were analyzed in grayscale using Image Studio software. For each sample, GAPDH protein bands were detected as internal reference. The degradation rates of the AR protein for the compounds and the positive control sample were calculated based on grayscale of the protein bands.

[2] = target: T2, AR protein (Homo sapiens, UniProt P10275); assay: Degradation of AR protein in VCaP cells (Western blot); conditions: 8 hours; for inhibition at 0.01 µM: read-out: Degradation rate of the AR protein in VCaP cells, 10 nM (%); for inhibition at 0.1 µM: read-out: Degradation rate of the AR protein in VCaP cells, 100 nM (%)
T2 construct: degradation activity of the compounds disclosed in the present disclosure on AR protein in VCaP cells; host or cells: VCaP
T2 sequence (P10275 1-920): T1 sequence (P10275 1-920 T878A) with A878T
Description: The degradation activity of the compounds disclosed in the present disclosure on AR protein in VCaP cells (cell source: ATCC)
as §1

[3] = test system: LNCaP FGC cells; assay: Inhibition of proliferation of LNCaP cells (WST-8)
Description: The cells were cultured in a cell culture incubator with 5% CO2 at 37° C. overnight. […] On the sixth day, 96 well plates were taken out, and 20 μL of WST-8 (Beytime, C0040) reagent was added to each well.

[4] = LNCaP cells, compound 10 nM, 8 hours, Western blot grayscale, GAPDH internal reference
[5] = LNCaP cells, compound 100 nM, 8 hours, Western blot grayscale, GAPDH internal reference
[6] = Homo sapiens, LNCaP, 96 h, LNCaP FGC cells, 96 hours, WST-8 absorbance at 450 nm, read-out: IC50 for inhibiting the proliferation of LNCaP cells

Degradation rate of the AR protein in VCaP cells, 10 nM (%) ([2]; compound at 10 nM)	Degradation rate of the AR protein in VCaP cells, 100 nM (%) ([2]; compound at 100 nM)	IC50 ([3]; LNCaP FGC cells, 96 hours, WST-8 absorbance at 450 nm, read-out: IC50 for inhibiting the proliferation of LNCaP cells) [nM]	Compound	inhibition at 0.01 µM [1, 4] [%]	inhibition at 0.1 µM [1, 5] [%]	inhibition at 0.01 µM ([2]; compound at 10 nM) [%]	inhibition at 0.1 µM ([2]; compound at 100 nM) [%]	IC50 [3, 6] [nM]	inhibition at 0.01 µM ([1]; LNCaP, 8 h) [%]	inhibition at 0.1 µM ([1]; LNCaP, 8 h) [%]	IC50 ([3]; Homo sapiens, LNCaP, 96 h, read-out: IC50 for inhibiting the proliferation of LNCaP cells, LNCaP FGC cells, 96 hours, WST-8 absorbance at 450 nm) [nM]
15	42	71800	N#Cc1ccc(O[C@H]2CC[C@H](NC(=O)c3ccc(N4CCC(F)(CN5CCC6(CCc7ccc8c(c7O6)CN(C6CCC(=O)NC6=O)C8=O)CC5)CC4)nn3)CC2)cc1Cl (some centres unmarked) [Compound 166]	36	19	43	60	–	–	–	–
–	–	–	CC1(C)[C@H](NC(=O)c2ccc(N3CCC(C#N)(CN4CCC5(CC4)COc4c5ccc5c4CN(C4CCC(=O)NC4=O)C5=O)CC3)nn2)C(C)(C)[C@H]1Oc1ccc(C#N)c(Cl)c1 (some centres unmarked) [Compound 225]	-35	7	-29	30	30	–	–	–
–	–	–	N#Cc1ccc(O[C@H]2CC[C@H](NC(=O)c3ccc(N4CCC(N5CCC6(CC5)COc5c(ccc7c5C(=O)N(C5CCC(=O)NC5=O)C7)C6)CC4)nn3)CC2)cc1Cl (some centres unmarked) [Compound 189]	–	–	–	–	–	42	57	26900
–	–	–	COCC1(CN2CCC3(CC2)COc2c3ccc3c2CN(C2CCC(=O)NC2=O)C3=O)CCN(c2ccc(C(=O)N[C@H]3CC[C@H](Oc4ccc(C#N)c(Cl)c4)CC3)nn2)CC1 (some centres unmarked) [Compound 258]	71	67	60	84	17	–	–	–
–	–	–	N#Cc1ccc(O[C@H]2CC[C@H](NC(=O)c3ccc(N4CCC5(CC4)CC(N4CCC6(CC4)COc4c(ccc7c4C(=O)N(C4CCC(=O)NC4=O)C7)C6)C5)nn3)CC2)cc1Cl (some centres unmarked) [Compound 188]	68	66	63	79	3720	–	–	–
–	–	–	COc1cc(O[C@H]2C(C)(C)[C@H](NC(=O)c3ccc(N4CCC(F)(CN5CCC6(CC5)COc5c6ccc6c5CN(C5CCC(=O)NC5=O)C6=O)CC4)cc3)C2(C)C)ccc1C#N (some centres unmarked) [Compound 223]	27	20	-3	52	9	–	–	–
–	–	–	COc1cc(O[C@H]2C(C)(C)[C@H](NC(=O)c3ccc(N4CCC(C#N)(CN5CCC6(CC5)COc5c6ccc6c5CN(C5CCC(=O)NC5=O)C6=O)CC4)nn3)C2(C)C)ccc1C#N (some centres unmarked) [Compound 224]	41	52	24	57	11	–	–	–
–	–	–	CC1(CN2CCC3(CC2)COc2c3ccc3c2CN(C2CCC(=O)NC2=O)C3=O)CCN(c2ccc(C(=O)N[C@H]3C(C)(C)[C@H](Oc4ccc(C#N)c(Cl)c4)C3(C)C)cc2)CC1 (some centres unmarked) [Compound 222]	4	75	8	61	880	–	–	–
–	–	–	COc1cc(O[C@H]2C(C)(C)[C@H](NC(=O)c3ccc(N4CCC(F)(CN5CC6(CCc7ccc8c(c7O6)C(=O)N(C6CCC(=O)NC6=O)C8=O)C5)CC4)cc3)C2(C)C)ccc1C#N (some centres unmarked) [Compound 274]	-3	-5	4	-13	84900	–	–	–
–	–	–	N#Cc1ccc(O[C@H]2CC[C@H](NC(=O)c3ccc(N4CC[C@H](CN5CCC6(CC5)COc5c6ccc6c5CN(C5CCC(=O)NC5=O)C6=O)[C@H](F)C4)nn3)CC2)cc1Cl (some centres unmarked) [Compound 226]	52	34	74	83	2.5	–	–	–
–	–	–	N#Cc1ccc(O[C@H]2CC[C@H](NC(=O)c3ccc(N4CCC5(CCC(N6CCC7(CC6)COc6c(ccc8c6C(=O)N(C6CCC(=O)NC6=O)C8)C7)CC5)CC4)nn3)CC2)cc1Cl (some centres unmarked) [Compound 190]	53	75	–	–	5150	–	–	–
–	–	–	N#Cc1ccc(O[C@H]2CC[C@H](NC(=O)c3ccc(C#CC4CC5(C4)CC(N4CCC6(CC4)COc4c6ccc6c4CN(C4CCC(=O)NC4=O)C6=O)C5)nn3)CC2)cc1Cl (some centres unmarked) [Compound 252]	56	70	80	87	6240	–	–	–
–	–	–	COc1cc(OC2CCC(NC(=O)c3cnc(N4CCC(C)(CN5CCC6(CC5)COc5c6ccc6c5CN(C5CCC(=O)NC5=O)C6=O)CC4)nc3)CC2)ccc1C#N (centres unmarked) [Compound 247]	-10	27	53	70	15	–	–	–
–	–	–	COc1cc(O[C@H]2C(C)(C)[C@H](NC(=O)c3ccc(N4CCC(CN5CCC6(CC5)COc5c6ccc6c5CN(C5CCC(=O)NC5=O)C6=O)(OC)CC4)cc3)C2(C)C)ccc1C#N (some centres unmarked) [Compound 217]	-2	48	49	83	5	–	–	–
–	–	–	N#Cc1ccc(O[C@H]2CC[C@H](NC(=O)c3ccc(N4CCC(F)(CN5CCC6(CC5)COc5c6ccc6c5CN(C5CCC(=O)NC5=O)C6=O)CC4)nc3)CC2)cc1Cl (some centres unmarked) [Compound 216]	–	–	54	80	6	–	–	–
